One data set deals with PXR LBD. As to conditions: ref Xue et al., 2007; cited from earlier work.
Data set [1] has as its system constitutively active pocket-filling mutants of PXR. Kind of data set: antagonism of constitutively active pocket-filling mutants of PXR. Format: cell-based. As to conditions: double and triple mutant forms.
The target of data set [2] is T1, PXR (Homo sapiens, UniProt O75469).
T1 sequence (O75469 1-434): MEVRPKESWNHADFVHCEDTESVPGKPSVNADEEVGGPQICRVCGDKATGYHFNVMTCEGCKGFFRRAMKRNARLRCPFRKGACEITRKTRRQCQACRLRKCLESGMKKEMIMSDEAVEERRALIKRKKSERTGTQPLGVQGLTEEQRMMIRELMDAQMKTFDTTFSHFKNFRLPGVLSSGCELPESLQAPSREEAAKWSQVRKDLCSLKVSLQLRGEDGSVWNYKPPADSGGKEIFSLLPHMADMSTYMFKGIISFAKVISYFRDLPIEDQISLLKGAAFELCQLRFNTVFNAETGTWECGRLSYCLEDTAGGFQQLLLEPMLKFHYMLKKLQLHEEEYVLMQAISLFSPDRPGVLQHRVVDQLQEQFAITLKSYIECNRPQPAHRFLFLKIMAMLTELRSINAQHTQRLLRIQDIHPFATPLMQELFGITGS
As to conditions: sustained for at least 48–72 hours; ref Fuchs et al., 2012; cited from earlier work.

The target of a further data set is T2, Q272H PXR (Homo sapiens, UniProt O75469, Q272H).
T2 sequence (O75469 1-434 Q272H): T1 sequence (O75469 1-434) with Q272H
Kind of data set: yeast two-hybrid screen of PXR mutants. Format: cell-based. To be noted: Q272H mutation at the surface AF-2 site.

For a further data set, the system named is T248E/K277Q form of PXR. To be noted: ref Wang et al., 2007; cited from earlier work.
In data set [3] the test system is PXR. To be noted: ref Poulton et al., 2012; cited from earlier work.

Substitutions are numbered along the chain they refer to.

As for `O=S(=O)(c1ccccc1)N(CC(F)(F)F)c1ccc(C(O)(C(F)(F)F)C(F)(F)F)cc1` [T1317, T0901317], the Kd with PXR LBD is 11 nM.

Turning to `CC(=O)N1CCN(c2ccc(OCC3COC(Cn4ccnc4)(c4ccc(Cl)cc4Cl)O3)cc2)CC1` (stereo not drawn) [ketoconazole], in data set [1], the “antagonism of constitutively active pocket-filling PXR mutants” value was “still susceptible to antagonism”. Besides, on PXR [2], the “concentration needed to antagonize PXR activation in vivo” value is greater than 10 µM. Moreover, the “sensitivity of Q272H PXR to the antagonist” value on Q272H PXR is listed as “insensitive”. For the same molecule, the “antagonism of double-mutant T248E/K277Q PXR” value with T248E/K277Q form of PXR is “not susceptible to antagonism”.

Take `C[S+]([O-])CCCCN=C=S` (stereo not drawn) [sulphoraphane, sulforaphane]: the “effect in a humanized PXR mouse model” value in the data set on PXR [3] is “absence of effect”.

In general, Kd refers to the constant that tells how readily two partners part at equilibrium.

The values are drawn from paper PMC3583015 (Drug metabolism reviews, 2013).
